The structures appear in SMILES notation.

From PubChem BioAssay AID602120 (Johns Hopkins Ion Channel Center, 2011) come the findings set out here.

In the test the target is Potassium voltage-gated channel subfamily KQT member 1 (Homo sapiens) (UniProt P51787). Briefly: PubChem AID 602120. The settings on record: KCNQ1-CHO cells, manual whole-cell patch clamp current; at 0.3 µM; stronger effect = higher value. For orientation: In patch-clamp work, channel activity is measured electrically.
Potassium voltage-gated channel subfamily KQT member 1 (Homo sapiens), sequence (P51787 whole entry, looked up): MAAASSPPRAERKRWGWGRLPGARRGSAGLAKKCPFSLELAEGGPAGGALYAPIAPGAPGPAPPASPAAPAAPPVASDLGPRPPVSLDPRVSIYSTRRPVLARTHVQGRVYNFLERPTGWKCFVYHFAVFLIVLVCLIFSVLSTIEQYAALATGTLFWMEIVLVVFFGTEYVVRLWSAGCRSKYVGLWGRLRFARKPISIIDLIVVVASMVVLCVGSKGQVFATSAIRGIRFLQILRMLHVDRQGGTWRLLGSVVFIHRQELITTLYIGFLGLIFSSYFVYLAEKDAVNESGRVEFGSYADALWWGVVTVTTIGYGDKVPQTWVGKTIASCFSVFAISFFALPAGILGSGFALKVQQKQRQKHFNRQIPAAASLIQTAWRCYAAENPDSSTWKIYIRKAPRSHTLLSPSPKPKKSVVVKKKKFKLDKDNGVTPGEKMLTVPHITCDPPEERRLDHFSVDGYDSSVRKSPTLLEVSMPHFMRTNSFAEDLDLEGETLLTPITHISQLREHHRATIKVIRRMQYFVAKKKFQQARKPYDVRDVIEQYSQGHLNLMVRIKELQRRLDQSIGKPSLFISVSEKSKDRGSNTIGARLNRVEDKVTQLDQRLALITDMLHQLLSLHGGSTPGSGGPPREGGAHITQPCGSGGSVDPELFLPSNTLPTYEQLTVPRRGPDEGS

Take `COc1ccc(-c2csc(NC(=O)[C@H]3CCCCN3S(=O)(=O)c3ccc(C)cc3)n2)cc1`: the fold activation is 46.9.
